This is an account of results in ChEMBL document CHEMBL4373738, “Search for new multi-target compounds against Alzheimer's disease among histamine H3 receptor ligands” (Eur J Med Chem, 2020).

Each structure is given as a SMILES string. Calls of active or inactive are those of the source. No cut-off for these calls is given here.

Experiment [1] deals with Acetylcholinesterase (Electrophorus electricus) (UniProt O42275). Put plainly: Inhibition of electric eel AChE using acetylthiocholine iodide as substrate at 10 uM preincubated with enzyme for 5 mins prior to substrate addition measured after 5 mins by Ellman's method relative to control.
Acetylcholinesterase (Electrophorus electricus), sequence (O42275 24-633 limits assumed): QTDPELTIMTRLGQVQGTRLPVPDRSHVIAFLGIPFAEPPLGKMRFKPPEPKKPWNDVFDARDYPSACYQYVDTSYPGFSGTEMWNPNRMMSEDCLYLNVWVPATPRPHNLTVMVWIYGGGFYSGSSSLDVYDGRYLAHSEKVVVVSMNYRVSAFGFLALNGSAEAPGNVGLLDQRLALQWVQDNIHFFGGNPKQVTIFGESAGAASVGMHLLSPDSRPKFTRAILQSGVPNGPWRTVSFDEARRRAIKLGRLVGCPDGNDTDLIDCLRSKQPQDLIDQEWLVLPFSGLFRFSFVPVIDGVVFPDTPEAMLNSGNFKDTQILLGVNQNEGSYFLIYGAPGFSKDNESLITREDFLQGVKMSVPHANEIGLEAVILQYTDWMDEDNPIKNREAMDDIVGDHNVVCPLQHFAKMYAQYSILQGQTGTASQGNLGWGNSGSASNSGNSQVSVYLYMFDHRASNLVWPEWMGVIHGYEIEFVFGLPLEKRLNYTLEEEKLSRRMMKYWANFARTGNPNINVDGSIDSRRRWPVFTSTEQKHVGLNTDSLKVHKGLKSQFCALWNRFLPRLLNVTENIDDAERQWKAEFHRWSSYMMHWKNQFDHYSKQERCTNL
Experiment [2] addresses T1, Cholinesterase (Equus caballus, UniProt P81908).
Description: Inhibition of equine serum BChE using butyrylthiocholine iodide as substrate preincubated with enzyme for 5 mins prior to substrate addition measured after 5 mins by Ellman's method
In experiment [3] the target is Cholinesterase (Equus caballus) (UniProt P81908). Kind of experiment: Inhibition of equine serum BChE using butyrylthiocholine iodide as substrate at 10 uM preincubated with enzyme for 5 mins prior to substrate addition measured after 5 mins by Ellman's method relative to control.
Cholinesterase (Equus caballus), sequence (P81908 whole entry): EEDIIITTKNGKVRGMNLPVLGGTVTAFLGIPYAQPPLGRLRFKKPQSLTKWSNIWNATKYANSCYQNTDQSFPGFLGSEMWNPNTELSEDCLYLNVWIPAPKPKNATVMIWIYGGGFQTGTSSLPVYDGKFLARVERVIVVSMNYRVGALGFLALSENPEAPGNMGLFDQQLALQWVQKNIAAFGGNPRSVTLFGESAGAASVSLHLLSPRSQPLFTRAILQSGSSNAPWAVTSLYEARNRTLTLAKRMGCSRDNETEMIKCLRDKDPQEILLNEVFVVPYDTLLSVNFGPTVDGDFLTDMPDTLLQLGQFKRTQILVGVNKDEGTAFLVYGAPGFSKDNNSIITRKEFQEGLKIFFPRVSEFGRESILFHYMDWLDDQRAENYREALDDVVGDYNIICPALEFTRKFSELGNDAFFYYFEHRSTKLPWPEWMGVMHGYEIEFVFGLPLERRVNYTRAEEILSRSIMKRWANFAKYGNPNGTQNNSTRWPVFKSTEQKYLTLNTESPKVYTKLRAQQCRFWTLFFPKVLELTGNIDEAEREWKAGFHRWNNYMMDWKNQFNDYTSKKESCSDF
Experiment [4] addresses T2, Acetylcholinesterase (Electrophorus electricus, UniProt O42275). Kind of experiment: Inhibition of electric eel AChE using acetylthiocholine iodide as substrate preincubated with enzyme for 5 mins prior to substrate addition measured after 5 mins by Ellman's method. On the technique in general: DTNB colorimetry detects thiols as they appear.
Experiment [5] addresses T3, Histamine H3 receptor (Homo sapiens, UniProt Q9Y5N1). Kind of experiment: Displacement of [3H]-N-alpha-methylhistamine from human histamine H3 receptor stably expressed in HEK293 cell membrane after 90 mins. Background: Loss of bound radioactivity is the signal in a displacement assay; it reports binding, not function.
Experiment [6] deals with T4, Acetylcholinesterase (Homo sapiens, UniProt P22303). Put plainly: Inhibition of recombinant human AChE using acetylthiocholine iodide as substrate preincubated with enzyme for 5 mins prior to substrate addition measured after 5 mins by Ellman's method.
T4 sequence (P22303 whole entry): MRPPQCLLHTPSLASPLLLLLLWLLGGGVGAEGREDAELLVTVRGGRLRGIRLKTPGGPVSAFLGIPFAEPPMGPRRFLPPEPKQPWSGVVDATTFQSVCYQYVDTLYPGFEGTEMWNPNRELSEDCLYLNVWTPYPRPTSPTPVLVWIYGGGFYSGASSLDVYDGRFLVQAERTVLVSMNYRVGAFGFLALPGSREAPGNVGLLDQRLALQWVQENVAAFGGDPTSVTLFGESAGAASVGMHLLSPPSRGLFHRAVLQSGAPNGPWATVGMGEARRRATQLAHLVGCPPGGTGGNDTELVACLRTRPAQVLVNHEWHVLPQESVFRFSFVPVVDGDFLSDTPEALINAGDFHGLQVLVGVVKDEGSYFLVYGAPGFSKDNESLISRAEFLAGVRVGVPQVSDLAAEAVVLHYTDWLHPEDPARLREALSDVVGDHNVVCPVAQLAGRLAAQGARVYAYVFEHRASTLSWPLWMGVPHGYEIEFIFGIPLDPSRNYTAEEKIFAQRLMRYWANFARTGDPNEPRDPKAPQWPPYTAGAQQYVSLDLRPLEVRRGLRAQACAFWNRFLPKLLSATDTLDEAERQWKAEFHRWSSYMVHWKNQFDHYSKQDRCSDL
The target in experiment [7] is T4, Acetylcholinesterase. Kind of experiment: Non-competitive inhibition of recombinant human AChE using acetylthiocholine iodide as substrate by Lineweaver-Burk plot analysis.
In experiment [8] the target is T4, Acetylcholinesterase. Kind of experiment: Non-competitive inhibition of recombinant human AChE using acetylthiocholine iodide as substrate by Cornish-Bowden plot analysis.
The target of experiment [9] is T3, Histamine H3 receptor. Put plainly: Displacement of [125I]Iodoproxyfan from human histamine H3 receptor stably expressed in CHOK1 cells after 60 mins. It counts as cell-based.
The target of experiment [10] is T1, Cholinesterase. Kind of experiment: Non-competitive inhibition of equine serum BChE using butyrylthiocholine iodide as substrate by Lineweaver-Burk plot analysis.
The target of experiment [11] is T2, Acetylcholinesterase. Put plainly: Non-competitive inhibition of electric eel AChE using acetylthiocholine iodide as substrate by Lineweaver-Burk plot analysis.
In experiment [12] the target is T3, Histamine H3 receptor. Put plainly: Displacement of [125I]Iodoproxyfan from human histamine H3 receptor stably expressed in HEK293 cells after 60 mins. It counts as cell-based.

T3 sequence (Q9Y5N1 whole entry): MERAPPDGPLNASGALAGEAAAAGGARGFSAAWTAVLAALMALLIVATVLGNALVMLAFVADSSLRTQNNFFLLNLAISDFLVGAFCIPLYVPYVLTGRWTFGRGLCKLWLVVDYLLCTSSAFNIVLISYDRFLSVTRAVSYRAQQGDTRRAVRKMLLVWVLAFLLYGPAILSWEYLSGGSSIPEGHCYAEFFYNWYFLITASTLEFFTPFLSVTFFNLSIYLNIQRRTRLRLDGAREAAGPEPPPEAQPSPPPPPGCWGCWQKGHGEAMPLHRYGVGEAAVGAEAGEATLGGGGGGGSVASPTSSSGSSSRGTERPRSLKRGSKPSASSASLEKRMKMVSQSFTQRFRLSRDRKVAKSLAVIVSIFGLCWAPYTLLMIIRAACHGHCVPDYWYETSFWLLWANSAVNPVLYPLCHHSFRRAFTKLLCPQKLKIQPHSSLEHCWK
T2 sequence (O42275 whole entry): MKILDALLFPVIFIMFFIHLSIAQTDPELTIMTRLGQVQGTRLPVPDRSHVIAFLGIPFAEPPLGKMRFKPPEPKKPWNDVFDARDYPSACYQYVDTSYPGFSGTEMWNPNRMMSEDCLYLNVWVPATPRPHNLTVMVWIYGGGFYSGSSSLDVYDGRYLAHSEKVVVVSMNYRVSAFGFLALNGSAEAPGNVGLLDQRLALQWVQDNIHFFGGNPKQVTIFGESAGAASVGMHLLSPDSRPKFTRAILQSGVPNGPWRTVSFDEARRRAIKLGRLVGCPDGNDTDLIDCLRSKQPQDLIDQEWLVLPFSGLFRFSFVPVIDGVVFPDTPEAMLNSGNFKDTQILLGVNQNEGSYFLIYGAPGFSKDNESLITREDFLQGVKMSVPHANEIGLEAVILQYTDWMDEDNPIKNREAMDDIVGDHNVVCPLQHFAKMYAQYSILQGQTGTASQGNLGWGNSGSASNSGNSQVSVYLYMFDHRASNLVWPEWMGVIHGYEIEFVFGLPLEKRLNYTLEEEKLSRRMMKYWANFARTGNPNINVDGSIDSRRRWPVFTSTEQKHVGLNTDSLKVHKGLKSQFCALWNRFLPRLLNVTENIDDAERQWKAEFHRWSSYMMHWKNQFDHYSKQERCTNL
T1 sequence (P81908 whole entry): as the sequence (P81908 whole entry) above

Usually inhibition stands for the percentage by which the read-out fell short of the control. For orientation: IC50 means the midpoint of a concentration-inhibition curve. A word on the Ki: it is a dissociation constant, usually derived from enzyme kinetics or from competition with a known ligand. Consider `CC1CCCN(CCCCCCOc2ccc3c(c2)C(=O)CC(c2ccccc2)O3)C1` (centres undefined), for which the inhibition in experiment [1] was determined as 91.5%; in experiment [3], 90.3%. Besides, the IC50 in experiment [2] worked out at 1.9 µM; in [4], 0.8 µM. The compound further registered a Ki in [5] of 0.523 µM.
Turning to `Cc1ccc2oc(-c3ccc(OCCCCCCN4CCCCC4)cc3)cc(=O)c2c1`, the values for the inhibition in experiment [1] and in experiment [3] were 95.6% and 99.6%, respectively. Further, the IC50 in [2] was 0.76 µM; in experiment [6], 0.36 µM; in [4], 0.5 µM. The inhibitory constant (Ki) was found to be 0.129 µM in experiment [7] and 0.228 µM in [5]. Further, the inhibition result in experiment [8] was “Active”.
As for `O=C(c1ccc(OCCCN2CCN(C/C=C/c3ccccc3)CC2)cc1)C1CC1`, the values for the inhibition in [1] and in [3] were 8.85% and 38.4%, respectively. In addition, in [9], affinity was put at a Ki of 0.083 µM.
With `Cc1ccc2oc(-c3ccc(OCCCCCCN4CCCCCC4)cc3)cc(=O)c2c1`, the inhibition in experiment [1] stood at 95.9%; in experiment [3], 99.5%. In addition, the results for the IC50 in experiment [2], in experiment [6] and in experiment [4] were 0.44 µM, 0.48 µM and 0.46 µM, respectively. The results for the Ki in [10], in experiment [11] and in experiment [5] were 0.281 µM, 0.176 µM and 0.16 µM, respectively.
For the compound `CCc1ccc(OCCCCCCN2CCC(C)CC2)cc1`, the inhibition in [1] turned out to be 23.5%; in [3], 75.1%. This compound also showed an IC50 in experiment [2] of 3.92 µM. The same compound came in with a Ki in experiment [5] of 0.181 µM.
As for `CCc1ccc(OCCCCCCN2CCCCCC2)cc1`, the inhibition in experiment [1] worked out at 30.8%; in experiment [3], 85.7%. In experiment [2], the IC50 turned out to be 1.9 µM. The compound also registered a Ki in [5] of 0.0843 µM.
Consider `Clc1ccc(CCCOCCCN2CCCCC2)cc1`, for which the values for the inhibition in experiment [1] and in [3] were 3.04% and 55.7%, respectively.
Take `O=C(c1ccccc1Cl)N1CCN(CCCOCC2CCC2)CC1`: the inhibition in [1] and in [3] was 0% throughout. Also, in experiment [9], the Ki is above 1 µM.
In the case of `O=C(c1ccc(OCCCN2CCN(c3ccccc3)CC2)cc1)C1CC1`, the inhibition in experiment [1] is 7.58%; in experiment [3], 11.2%. Also, the Ki in experiment [12] was found to be 0.111 µM.
With `C(=C\c1ccccc1)/CN1CCN(CCCOCCCc2ccccc2)CC1`, the inhibition amounted to 0% in [1] and 37.8% in [3]. Besides, the affinity in experiment [9] corresponds to a Ki of 0.69 µM.
With `c1ccc(CCCOCCCN2CCN(Cc3ccccc3)CC2)cc1`, the inhibition in experiment [1] stood at 18.8%; in [3] it was 33.9%. For the same compound, the Ki in [9] was above 1 µM.
Regarding `CCOc1ccccc1N1CCN(CCCOCCCc2ccccc2)CC1`, the inhibition is 3.36% in experiment [1] and 46% in experiment [3]. This compound also had a Ki in [9] above 1 µM.
`Cc1ccc2oc(-c3ccc(OCCCCCCN4CCCC(C)C4)cc3)cc(=O)c2c1` (centres undefined): the inhibition is 94% in experiment [1] and 99.4% in experiment [3]. Further, the IC50 in experiment [2] stood at 1.09 µM; in [4] it was 0.8 µM. The affinity in [5], expressed as Ki, was 0.06 µM.
